Laboratory results as given in patent US8728439B2, “System and method for indirectly measuring calcium ion efflux” (Celtrast LLC, priority 2008, dated 2014).

Key:
[1] = Heart rate post-MnCl2 infusion
NCX = biological target: T1, NCX (Mus musculus, UniProt P70414); assay: MEMRI T1-mapping of LV Wall ΔR1 washout (Mn2+ efflux) after MnCl2 infusion, with or without NCX inhibitor; assay type: in vivo, C57Bl/6 mice; details: for average LV Wall ΔR1: 4.9-5.9 hours post-MnCl2 infusion; for ΔR1,0 (extrapolated ΔR1 at the time of MnCl2 infusion): fit t>=1 hour
T1 construct: from tissue; host or cells: myocardium (left ventricular free wall) of living C57Bl/6 mice

[2] = Absolute Mn content in heart tissue by ICP-MS; assay type: in vivo, C57Bl/6 mice; details: 50 mg/kg SEA0400; approximately 6 hours post-MnCl2
Experimental: As previously stated, all mice were anesthetized during the experimental procedures: contrast agent infusion, drug administration, and imaging sessions. The mice were allowed to recover between procedures so as to […] the time each mouse was under anesthesia to 2.5 hours, which was then followed by a recovery period of at least 2.5 hours. This protocol minimized any physiological effects caused by the anesthesia; imaging time points selected for each mouse followed these guidelines. In addition, efforts were made to alter the time interval between successive data points so as not to bias the results with potential anesthesia effects. […] A subgroup of randomly selected animals (n=16) was sacrificed immediately after imaging to measure absolute Mn content in heart tissue (n=14) and blood samples (n=6) by inductively coupled plasma-mass spectrometry (ICP-MS) analysis ([…] Ltd., North Vancouver, BC, Canada). The samples were harvested approximately one hour after the initiation of the final T1-map. This time delay was due to the length of time required to acquire the T1-map, and the time required to harvest the samples, and remained constant for all of the samples. […] No statistically significant differences between the groups were found following linear least-square fitting to the data. […]

average LV Wall ΔR1 (NCX; 20 mg/kg SEA0400): 1.72 ± 0.24 s⁻¹ | ΔR1,0 (extrapolated ΔR1 at the time of MnCl2 infusion) (NCX; 20 mg/kg SEA0400 i.p. one hour post-MnCl2): 4.8 ± 0.2 s⁻¹ | average LV Wall ΔR1 (NCX; 50 mg/kg SEA0400): 2.46 ± 0.29 s⁻¹ | ΔR1,0 (extrapolated ΔR1 at the time of MnCl2 infusion) (NCX; 50 mg/kg SEA0400 i.p. one hour post-MnCl2): 4.3 ± 0.4 s⁻¹
SMILES: CCOc1ccc(Oc2ccc(OCc3cc(F)ccc3F)cc2)c(N)c1 [SEA0400]
average post-MnCl2 infusion heart rate ([1]; 20 mg/kg SEA0400): 449±30 bpm | average post-MnCl2 infusion heart rate ([1]; 50 mg/kg SEA0400): 443±28 bpm | difference in heart rate between the experimental groups ([1]; control, 20 mg/kg and 50 mg/kg SEA0400, p=0.08): No significant differences in HR | half-life versus control group (extra sum-of-squares F test) (NCX; 20 mg/kg SEA0400, p=0.54): not statistically different from the control group | half-life versus control group (extra sum-of-squares F test) (NCX; 50 mg/kg SEA0400, p=0.006): significantly different from the control group | absolute cardiac Mn concentration [2]: 27.1 µg/g
